The values that follow come from ChEMBL document CHEMBL4831515 (J Med Chem, 2021).

Values after ≈ are worked out from the molar mass of the structure shown.

Data set [1] can be described thus: Stability in human liver microsomes assessed as compound remaining preincubated for 10 mins followed by phosphate buffer addition and incubated for 1 hr and subsequent addition of NADPH regenerating system and measured after 60 mins by LC-MS/MS analysis. The format is ADME, Microsome. The note with it: time 190 min, read-out: Stability. In general terms: Liver microsomes are a subcellular fraction often used to study metabolism.

Data set [2] is described as follows: in vitro. Conditions: human, liver microsomes.
A short description of data set [3]: Half life in human liver microsomes preincubated for 10 mins followed by phosphate buffer addition and incubated for 1 hr and subsequent addition of NADPH regenerating system and measured after 2 hrs by LC-MS/MS analysis.
Data set [4] relates to Human immunodeficiency virus 1. As to the kind of experiment: Antiviral activity against HIV1 harboring F227L/V106A mutant infected in human MT4 cells assessed as reduction in virus-induced cytopathogenic effect by MTT assay. Type of data set: functional, organism-based. The note with it: Human immunodeficiency virus 1, MT4.
Data set [5] has as its system Human immunodeficiency virus 1. As to the kind of experiment: Antiviral activity against HIV1 harboring L100I mutant infected in human MT4 cells assessed as reduction in virus-induced cytopathogenic effect by MTT assay. Conditions: Human immunodeficiency virus 1, MT4. On the technique in general: Protection from cytopathic effect is a common read-out in antiviral testing.

Data set [6] concerns Human immunodeficiency virus 1. The experiment in a line: Antiviral activity against wild type HIV1 harboring Y181C mutant infected in human MT4 cells assessed as reduction in virus-induced cytopathogenic effect by MTT assay. The note with it: Human immunodeficiency virus 1, MT4.
The subject of data set [7] is Human immunodeficiency virus 1. The experiment in a line: Antiviral activity against HIV1 3B infected in human MT4 cells assessed as reduction in virus-induced cytopathogenic effect by MTT assay. The note with it: Human immunodeficiency virus 1, 3B.
Data set [8] deals with Human immunodeficiency virus type 1 reverse transcriptase (Human immunodeficiency virus 1, UniProt Q72547). As to the kind of experiment: Inhibition of wild type HIV1 reverse transcriptase assessed as reduction in biotin-dUTP incorporation into […] incubated for 1 hrs by ELISA.
Data set [9] can be described thus: Cytotoxicity against human MT4 cells assessed as reduction in cell viability by MTT assay. (Tetrazolium dyes change colour on reduction, which living cells bring about.)
The test system of data set [10] is Human immunodeficiency virus 2. As to the kind of experiment: Antiviral activity against wild type HIV2 ROD infected in human MT4 cells assessed as reduction in virus-induced cytopathogenic effect by MTT assay. The note with it: Human immunodeficiency virus 2, ROD.
Data set [11] has as its system Human immunodeficiency virus 1. The experiment in a line: Antiviral activity against HIV1 harboring K103N mutant infected in human MT4 cells assessed as reduction in virus-induced cytopathogenic effect by MTT assay. The format is functional, organism-based. The note with it: Human immunodeficiency virus 1, MT4.
The nature of data set [12]: in vitro. The note with it: human, MT4 cells.
Description: Selectivity index, ratio of CC50 for human MT4 cells to EC50 for HIV1 harboring E138K mutant infected in human MT4 cells
Data set [13] relates to Human immunodeficiency virus 1. The experiment in a line: Antiviral activity against HIV1 RES056 infected in human MT4 cells assessed as reduction in virus-induced cytopathogenic effect by MTT assay. Conditions: Human immunodeficiency virus 1, RES056, MT4.
Data set [14] is described as follows: Selectivity ratio of CC50 for human MT4 cells to IC50 for HIV1 RES056 infected in MT4 cells.
The subject of data set [15] is Human immunodeficiency virus 1. The note with it: Human immunodeficiency virus 1, MT4.
In data set [16] the test system is Human immunodeficiency virus 1. The experiment in a line: Antiviral activity against wild type HIV1 harboring Y188L mutant infected in human MT4 cells assessed as reduction in virus-induced cytopathogenic effect by MTT assay. The note with it: Human immunodeficiency virus 1, MT4.
A short description of data set [17]: Volume of distribution in Sprague-Dawley rat at 2 mg/kg, iv measured after 5 to 600 mins by LC-MS/MS analysis. The format is ADME, organism-based. Conditions: in vivo, time 5-600 min.
The nature of data set [18]: AUC (0 to last) in Sprague-Dawley rat at 20 mg/kg, po measured after 15 to 720 mins by LC-MS/MS analysis. The format is ADME, organism-based. Also noted: route oral, time lower 15 min, dose 20 mg/kg, time upper 720 min. The note with it: in vivo.
A short description of data set [19]: Cmax in Sprague-Dawley rat at 2 mg/kg, iv measured after 5 to 600 mins by LC-MS/MS analysis. The format is ADME, organism-based. On the set-up: route intravenous, time lower 5 min, dose 2 mg/kg, time upper 600 min. The note with it: in vivo.
Data set [20] is described as follows: Acute toxicity in ig dosed Kunming mouse measured every day for 7 days. The format is organism-based. The note with it: in vivo, po, time 7 day.
The nature of data set [21]: AUC(0 to infinity) in Sprague-Dawley rat at 2 mg/kg, iv measured after 5 to 600 mins by LC-MS/MS analysis. Conditions: in vivo. Type of data set: ADME, organism-based. Also noted: route intravenous, time 5-600 min, dose 2 mg/kg.
The nature of data set [22]: Half life in Sprague-Dawley rat at 2 mg/kg, iv measured after 5 to 600 mins by LC-MS/MS analysis. The note with it: in vivo, time 5-600 min. The format is ADME, organism-based.
Data set [23] in a line: AUC(0 to last) in Sprague-Dawley rat at 2 mg/kg, iv measured after 5 to 600 mins by LC-MS/MS analysis. Type of data set: ADME, organism-based. Also noted: route intravenous, dose 2 mg/kg, time upper 600 min, time lower 5 min. The note with it: in vivo.
Data set [24] in a line: Acute toxicity in Kunming mouse assessed as effect on body weight at 1000 mg/kg, ig measured every day for 7 days. Type of data set: organism-based. The note with it: in vivo, po, 168 h, time 7 day.
A short description of data set [25]: Acute toxicity in Kunming mouse assessed as induction of poisoning at 1000 mg/kg, ig measured every day for 7 days. The format is organism-based. Conditions: in vivo, po, 168 h, time 7 day.
Data set [26] is described as follows: Tmax in Sprague-Dawley rat at 20 mg/kg, po measured after 15 to 720 mins by LC-MS/MS analysis. Type of data set: ADME, organism-based. The note with it: in vivo, time 15-720 min.
Data set [27] in a line: MRT (0 to infinity) in Sprague-Dawley rat at 20 mg/kg, po measured after 15 to 720 mins by LC-MS/MS analysis. Type of data set: ADME, organism-based. The note with it: in vivo, time 15-720 min.
The nature of data set [28]: Half life in Sprague-Dawley rat at 20 mg/kg, po measured after 15 to 720 mins by LC-MS/MS analysis. The format is ADME, organism-based. The note with it: in vivo, time 15-720 min.
A short description of data set [29]: Acute toxicity in Kunming mouse assessed as effect on growth at 1000 mg/kg, ig measured every day for 7 days. The format is organism-based. Conditions: in vivo, po, 168 h, time 7 day.
A short description of data set [30]: AUC (0 to infinity) in Sprague-Dawley rat at 20 mg/kg, po measured after 15 to 720 mins by LC-MS/MS analysis. Type of data set: ADME, organism-based. Also noted: route oral, time lower 15 min, dose 20 mg/kg, time upper 720 min. Conditions: in vivo.
Data set [31] is described as follows: MRT (0 to infinity) in Sprague-Dawley rat at 2 mg/kg, iv measured after 5 to 600 mins by LC-MS/MS analysis. The format is ADME, organism-based. The note with it: in vivo, time 5-600 min.
Data set [32] in a line: Acute toxicity in Kunming mouse assessed as mortality at 1000 mg/kg, ig measured every day for 7 days. Type of data set: organism-based. Conditions: in vivo, po, 168 h, time 7 day.
Data set [33] in a line: Tmax in Sprague-Dawley rat at 2 mg/kg, iv measured after 5 to 600 mins by LC-MS/MS analysis. Type of data set: ADME, organism-based. The note with it: in vivo, time 5-600 min.
Data set [34] in a line: Cmax in Sprague-Dawley rat at 20 mg/kg, po measured after 15 to 720 mins by LC-MS/MS analysis. Type of data set: ADME, organism-based. On the set-up: route oral, dose 20 mg/kg, time 15-720 min. The note with it: in vivo.
Data set [35] can be described thus: Clearance in Sprague-Dawley rat at 2 mg/kg, iv measured after 5 to 600 mins by LC-MS/MS analysis. Conditions: in vivo, time 5-600 min. The format is ADME, organism-based.
The nature of data set [36]: Solubility in phosphate buffer at pH7. The note with it: pH 7.

For orientation: microsomal CLint means a measure of how fast metabolising enzymes remove a compound, apart from limits set by blood flow. Usually half-life stands for the time in which the quantity being followed falls by half. By EC50 is commonly meant the concentration giving half of the maximal effect. The IC50 is the midpoint of a concentration-inhibition curve. Broadly, the CC50 is the concentration giving 50% cytotoxicity. One may read the Vd as a proportionality between amount in the body and measured concentration, not a real space. High values mean wide distribution into tissue, low ones little distribution into tissue. For orientation: AUC(0-t) means the area under the concentration-time curve up to a stated or last time point. A low value points to low exposure. In general, Cmax refers to the peak of the concentration-time curve. As a reminder, the LD50 is the dose expected to kill half of the subjects tested. Low readings indicate greater toxicity, high ones lower toxicity. As usually defined, the AUC(0-inf) is total exposure, with the tail of the curve extrapolated. What is called Tmax is the time from dosing to the highest level. A word on the MRT inf: it is the average time that molecules of a dose stay in the body. One may read the clearance as the rate of elimination divided by the concentration. The low end stands for inefficient removal, the high end for efficient removal. As usually defined, the solubility is the dissolved amount per volume that the medium holds. Low values mean a poorly soluble substance, high ones a readily soluble substance.

For `Cc1cc(/C=C/C#N)cc(C)c1Oc1nc(NC2CCN(Cc3ccc(S(N)(=O)=O)cc3)CC2)nc2ccsc12`, the remaining at 1 h in data set [1] was 0.2%. In data set [2], this compound returned a microsomal CLint at 2 h of 847 µL/min/mg. The half-life at 2 h in [3] stood at 1.6 min.
On to `Cc1cc(/C=C/C#N)cc(C)c1Oc1nc(Nc2ccc(C#N)nc2)nc2c1CSCC2`, for which the EC50 in [4] was 148 nM; in [5], 9.08 nM; in data set [6] it was 13.3 nM; in data set [7], 12.1 nM; in data set [10], more than 109000 nM; in [11] it was 4.09 nM. In addition, the half-maximal effective concentration (EC50) in [13] is 81.6 nM; in data set [15], 12.8 nM; in data set [16], 59.6 nM. The IC50 in data set [8] came out at 32 nM. Moreover, the CC50 in data set [9] worked out at 109000 nM. Further, the selectivity ratio was determined as 8520 in [12] and 1340 in [14].
As for `Cc1cc(/C=C/C#N)cc(C)c1Oc1nc(Nc2ccc(C#N)cc2)nc2c1CSCC2`, the EC50 was 42.9 nM in data set [4]; 4.44 nM in [5]; 14.9 nM in data set [6]; 9.67 nM in [7]; more than 284000 nM in data set [10]; 4.44 nM in data set [11]. Moreover, the concentration giving a half-maximal response (EC50) in [13] stood at 47.8 nM; in data set [15], 9.78 nM; in data set [16], 54.5 nM. In addition, in data set [17], the Vd came out at 0.702 L/kg. In addition, the AUC(0-t) in data set [18] was 19.5 ng·h/mL; in [23] it was 1510 ng·h/mL. In addition, the values for the Cmax in data set [19] and in data set [34] were 8880 ng/mL and 16.6 ng/mL, respectively. Also, the LD50 at 168 h in data set [20] was more than 1000 mg/kg. For the same compound, in [1], the remaining at 1 h was 0.3%. Further, the AUC(0-inf) was determined as 1510 ng·h/mL in [21] and 24 ng·h/mL in data set [30]. Further, the half-life in [22] is 116 min; in data set [28] it was 121 min. In data set [8], the IC50 was 81 nM. Also, the Activity entry in data set [24], in [25], in data set [29] and in data set [32] was “Non-Toxic” each time. In addition, the CC50 in [9] was determined as 284000 nM. For the same compound, the Tmax in data set [26] was found to be 15 min; in data set [33], 4.98 min. Further, the mean residence time (MRT inf) in data set [27] was determined as 174 min; in [31] it was 30 min. In [2], the microsomal CLint at 2 h was 188 µL/min/mg. In data set [35], this compound had a clearance of 23 mL/min/kg. For the same compound, the half-life at 2 h in data set [3] is 7.4 min.
`Cc1cc(C#N)cc(C)c1Oc1nc(Nc2ccc(C#N)cc2)nc(N)c1Br` [ETRAVIRINE]: the EC50 in data set [4] was 14.3 nM; in data set [5], 6.36 nM; in [7], 5.03 nM; in [10] it was more than 4590 nM; in [11], 3.14 nM; in data set [13] it was 42.5 nM. A half-maximal effect in [15] (EC50) was put at 8.08 nM. In data set [9], the CC50 is more than 4590 nM. For the same compound, the solubility in data set [36] is less than 1000 ng/mL.
Take `Cc1cc(/C=C/C#N)cc(C)c1Nc1ccnc(Nc2ccc(C#N)cc2)n1` [RILPIVIRINE]: in data set [36], the solubility amounted to 2 ng/mL (≈ 5.46 nM).
